Tests used:
[1] = target: T1, C-X-C chemokine receptor type 2 (Homo sapiens, UniProt P25025); assay type: cell membranes, Membrane; details: cho-k1; note: in other assays of this panel Not Active means under 50% inhibition at 10 µM
T1 sequence (P25025 whole entry): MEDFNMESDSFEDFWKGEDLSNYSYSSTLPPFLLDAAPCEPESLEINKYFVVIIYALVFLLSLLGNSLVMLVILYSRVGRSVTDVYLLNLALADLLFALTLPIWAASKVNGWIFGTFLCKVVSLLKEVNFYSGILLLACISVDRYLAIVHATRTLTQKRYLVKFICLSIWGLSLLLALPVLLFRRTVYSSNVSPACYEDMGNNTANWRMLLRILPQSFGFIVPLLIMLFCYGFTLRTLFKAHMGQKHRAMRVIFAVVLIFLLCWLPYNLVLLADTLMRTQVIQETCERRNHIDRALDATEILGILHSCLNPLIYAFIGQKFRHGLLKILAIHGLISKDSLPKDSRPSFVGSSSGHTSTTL

[2] = target: Sodium-dependent dopamine transporter (Homo sapiens, UniProt Q01959); assay: DRUGMATRIX: Dopamine Transporter radioligand binding (ligand: [125I] RTI-55); assay type: cell membranes, CHO-K1, Membrane; details: Not Active = under 50% inhibition at 10 µM
Leukotriene C4 synthase = target: T2, Leukotriene C4 synthase (Cavia porcellus, UniProt A6XA80); assay type: tissue-based, Lung;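 note: enzyme inhibition assay of leukotriene C4 synthase, using LTA4 as the substrate; in other assays of this panel Not Active means under 50% inhibition at 10 µM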
T2 sequence (A6XA80 whole entry): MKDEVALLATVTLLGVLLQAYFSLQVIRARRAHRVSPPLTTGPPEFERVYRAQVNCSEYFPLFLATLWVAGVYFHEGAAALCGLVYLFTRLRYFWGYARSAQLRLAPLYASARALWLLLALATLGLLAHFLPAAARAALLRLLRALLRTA

[3] = target: Platelet-activating factor receptor (Homo sapiens, UniProt P25105); assay type: tissue-based; note: in other assays of this panel Not Active means under 50% inhibition at 10 µM
[4] = target: Protein phosphatase 3 catalytic subunit alpha (Homo sapiens, UniProt Q08209); parameters: species or system Escherichia coli;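 note: inhibition of calcineurin (PP2B) enzyme activity, measured with DiFMUP as the substrate; in other assays of this panel Not Active means under 50% inhibition at 10 µM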
[5] = target: Tyrosine-protein kinase Lck (Homo sapiens, UniProt P06239); assay: DRUGMATRIX: Protein Tyrosine Kinase, LCK enzyme inhibition (substrate: Poly(Glu:Tyr)); assay type: cell-based, Insect cells; details: insect cells; Not Active = under 50% inhibition at 10 µM
Cytochrome P450 3A4 = Cytochrome P450 3A4 (Homo sapiens, UniProt P08684); details: bti-tn-5b1-4; note: in other assays of this panel Not Active means under 50% inhibition at 10 µM
[6] = target: T3, Alpha-2A adrenergic receptor (Homo sapiens, UniProt P08913); assay type: cell membranes, Sf9, Membrane; note: in other assays of this panel Not Active means under 50% inhibition at 10 µM
T3 sequence (P08913 whole entry): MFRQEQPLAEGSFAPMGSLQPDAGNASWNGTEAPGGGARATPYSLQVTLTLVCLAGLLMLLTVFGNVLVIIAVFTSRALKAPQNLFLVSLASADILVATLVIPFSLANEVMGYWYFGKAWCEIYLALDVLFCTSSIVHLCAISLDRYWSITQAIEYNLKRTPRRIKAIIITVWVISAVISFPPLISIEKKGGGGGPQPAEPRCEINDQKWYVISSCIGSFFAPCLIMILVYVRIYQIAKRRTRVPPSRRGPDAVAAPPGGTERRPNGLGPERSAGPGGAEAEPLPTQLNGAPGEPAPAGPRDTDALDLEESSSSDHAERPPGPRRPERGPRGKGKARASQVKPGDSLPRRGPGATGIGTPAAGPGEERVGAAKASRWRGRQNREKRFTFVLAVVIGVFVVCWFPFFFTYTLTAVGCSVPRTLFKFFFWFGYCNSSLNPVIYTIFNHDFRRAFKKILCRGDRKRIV

[7] = DRUGMATRIX: Calcium Channel Type L, Benzothiazepine radioligand binding (ligand: [3H] Diltiazem); assay type: cell membranes, Rattus norvegicus, Wistar, Brain, Membrane; details: Not Active = under 50% inhibition at 10 µM
[8] = DRUGMATRIX: Glutamate, NMDA, Phencyclidine radioligand binding (ligand: [3H] TCP); assay type: cell membranes, Rattus norvegicus, Wistar, Cerebral cortex, Membrane; details: Not Active = under 50% inhibition at 10 µM

Sequence of Sodium-dependent dopamine transporter (Q01959 whole entry): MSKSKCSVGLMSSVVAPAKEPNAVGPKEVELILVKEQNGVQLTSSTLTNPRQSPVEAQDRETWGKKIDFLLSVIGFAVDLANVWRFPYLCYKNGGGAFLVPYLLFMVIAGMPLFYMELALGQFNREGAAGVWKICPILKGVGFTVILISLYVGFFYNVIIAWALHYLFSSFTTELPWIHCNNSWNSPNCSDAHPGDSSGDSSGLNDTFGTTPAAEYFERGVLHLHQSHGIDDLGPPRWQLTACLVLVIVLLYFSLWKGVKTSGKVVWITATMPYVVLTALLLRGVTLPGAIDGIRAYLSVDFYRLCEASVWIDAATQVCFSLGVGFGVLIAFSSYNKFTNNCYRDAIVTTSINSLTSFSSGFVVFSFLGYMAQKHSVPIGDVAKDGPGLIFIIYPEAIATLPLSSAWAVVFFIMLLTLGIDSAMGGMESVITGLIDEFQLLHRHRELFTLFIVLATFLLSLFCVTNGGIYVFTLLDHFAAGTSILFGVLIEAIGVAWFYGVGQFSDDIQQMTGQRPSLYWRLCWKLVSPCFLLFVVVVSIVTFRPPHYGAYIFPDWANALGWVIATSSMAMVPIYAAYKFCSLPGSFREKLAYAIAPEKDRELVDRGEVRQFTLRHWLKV
Sequence of Tyrosine-protein kinase Lck (P06239 whole entry): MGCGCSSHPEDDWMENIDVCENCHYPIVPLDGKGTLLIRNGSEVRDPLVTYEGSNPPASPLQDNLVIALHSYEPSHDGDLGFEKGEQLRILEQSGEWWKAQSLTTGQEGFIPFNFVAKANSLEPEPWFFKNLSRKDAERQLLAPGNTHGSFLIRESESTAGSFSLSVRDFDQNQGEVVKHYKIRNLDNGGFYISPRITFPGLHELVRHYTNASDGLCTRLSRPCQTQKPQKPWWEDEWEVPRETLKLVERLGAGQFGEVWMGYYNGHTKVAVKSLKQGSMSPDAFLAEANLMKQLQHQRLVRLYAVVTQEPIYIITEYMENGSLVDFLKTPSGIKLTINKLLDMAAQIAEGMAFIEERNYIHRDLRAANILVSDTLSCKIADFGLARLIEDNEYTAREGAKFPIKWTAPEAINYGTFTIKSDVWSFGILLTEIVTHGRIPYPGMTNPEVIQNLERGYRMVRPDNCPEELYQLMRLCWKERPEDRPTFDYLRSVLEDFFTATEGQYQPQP
Sequence of Cytochrome P450 3A4 (P08684 whole entry): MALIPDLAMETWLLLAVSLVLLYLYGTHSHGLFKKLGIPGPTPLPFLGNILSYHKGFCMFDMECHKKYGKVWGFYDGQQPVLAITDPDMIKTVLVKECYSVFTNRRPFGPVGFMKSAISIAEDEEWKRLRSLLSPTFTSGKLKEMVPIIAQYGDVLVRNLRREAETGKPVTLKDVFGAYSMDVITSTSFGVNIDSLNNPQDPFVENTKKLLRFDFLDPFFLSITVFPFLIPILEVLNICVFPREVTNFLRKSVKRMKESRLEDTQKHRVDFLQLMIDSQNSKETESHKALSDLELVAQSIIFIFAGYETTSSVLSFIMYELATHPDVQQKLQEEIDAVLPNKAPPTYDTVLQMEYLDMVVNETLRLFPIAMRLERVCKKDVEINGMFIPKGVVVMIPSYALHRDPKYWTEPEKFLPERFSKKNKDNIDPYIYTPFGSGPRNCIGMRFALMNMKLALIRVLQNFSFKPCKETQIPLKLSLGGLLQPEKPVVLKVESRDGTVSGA
Sequence of Platelet-activating factor receptor (P25105 whole entry): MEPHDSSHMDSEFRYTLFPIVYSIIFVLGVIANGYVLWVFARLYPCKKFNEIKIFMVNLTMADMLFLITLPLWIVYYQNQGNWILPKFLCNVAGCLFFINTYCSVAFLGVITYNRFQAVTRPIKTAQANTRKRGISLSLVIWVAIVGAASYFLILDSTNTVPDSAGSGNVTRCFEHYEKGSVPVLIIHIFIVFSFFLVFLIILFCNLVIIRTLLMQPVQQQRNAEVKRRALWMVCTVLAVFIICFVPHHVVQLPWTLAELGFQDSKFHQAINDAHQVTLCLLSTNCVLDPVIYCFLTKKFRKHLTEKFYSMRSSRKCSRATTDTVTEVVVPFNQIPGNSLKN

SMILES | IC50 [1] | IC50 ([2]; cho-k1) | IC50 (Leukotriene C4 synthase) | IC50 [3] | IC50 [4] | IC50 [5] | IC50 (Cytochrome P450 3A4) | Ki (Cytochrome P450 3A4) | IC50 ([6]; sf9) | IC50 ([6]; read-out: IC50) | Ki ([6]; read-out: Ki) | IC50 ([7]; read-out: IC50) | Ki ([7]; read-out: Ki) | IC50 ([2]; read-out: IC50) | Ki ([2]; read-out: Ki) | IC50 [8] | Ki [8] | IC50 [7] | Ki [7]
Clc1ccc2c(c1)C(N1CCNCC1)=Nc1ccccc1O2 [AMOXAPINE] | Not Active | Not Active | Not Active | Not Active | Not Active | Not Active | Not Active | Not Active | – | – | – | – | – | – | – | – | – | – | –
COc1cc2c(c(OC)c1OC)-c1ccc(OC)c(=O)cc1[C@@H](NC(C)=O)CC2 [COLCHICINE] | Not Active | Not Active | Not Active | Not Active | Not Active | Not Active | – | – | Not Active | – | – | – | – | – | – | – | – | – | –
CN1CCC(=C2c3ccccc3C=Cc3ccccc32)CC1 [CYPROHEPTADINE] | Not Active | Not Active | Not Active | Not Active | Not Active | Not Active | Not Active | Not Active | – | – | – | – | – | – | – | – | – | – | –
CC/C(=C(/CC)c1ccc(O)cc1)c1ccc(O)cc1 [DIETHYLSTILBESTROL] | Not Active | – | Not Active | Not Active | Not Active | Not Active | Not Active | Not Active | – | – | – | – | – | – | – | – | – | – | –
CC(=O)N1CCN(c2ccc(OCC3COC(Cn4ccnc4)(c4ccc(Cl)cc4Cl)O3)cc2)CC1 (centres undefined) [KETOCONAZOLE] | Not Active | – | Not Active | Not Active | Not Active | Not Active | – | – | – | 19.8 µM | 7.42 µM | 32 µM | 28.5 µM | 23.5 µM | 18.7 µM | Not Active | Not Active | – | –
C=CCN1CC[C@]23c4c5ccc(O)c4O[C@H]2C(=O)CC[C@@]3(O)[C@H]1C5 [NALOXONE] | Not Active | Not Active | Not Active | Not Active | Not Active | Not Active | – | – | Not Active | – | – | – | – | – | – | – | – | – | –
COCCOC(=O)C1=C(C)NC(C)=C(C(=O)OC(C)C)C1c1cccc([N+](=O)[O-])c1 (centres undefined) [NIMODIPINE] | Not Active | Not Active | Not Active | Not Active | Not Active | Not Active | – | – | Not Active | – | – | 0.00209 µM | 0.00186 µM | – | – | Not Active | Not Active | – | –
CC(C)NCC(O)COc1cccc2ccccc12 (centres undefined) [PROPRANOLOL] | Not Active | – | Not Active | Not Active | Not Active | Not Active | Not Active | Not Active | Not Active | – | – | – | – | – | – | – | – | – | –
O=C(c1ccc(OCCN2CCCCC2)cc1)c1c(-c2ccc(O)cc2)sc2cc(O)ccc12 [RALOXIFENE] | Not Active | – | Not Active | Not Active | Not Active | Not Active | Not Active | Not Active | – | – | – | – | 0.368 µM | – | – | Not Active | Not Active | – | –
CC(C)c1nc(CN(C)C(=O)N[C@H](C(=O)N[C@@H](Cc2ccccc2)C[C@H](O)[C@H](Cc2ccccc2)NC(=O)OCc2cncs2)C(C)C)cs1 [RITONAVIR] | Not Active | Not Active | Not Active | Not Active | Not Active | Not Active | – | – | Not Active | – | – | – | – | – | – | Not Active | Not Active | Not Active | Not Active
CC(C)(C)c1ccc(C(O)CCCN2CCC(C(O)(c3ccccc3)c3ccccc3)CC2)cc1 (centres undefined) [TERFENADINE] | Not Active | – | Not Active | Not Active | Not Active | Not Active | Not Active | Not Active | Not Active | – | – | 0.226 µM | 0.201 µM | – | – | Not Active | Not Active | – | –
C[C@@H](N)[C@H]1CC[C@H](C(=O)Nc2ccncc2)CC1 [Y-27632] | Not Active | Not Active | Not Active | Not Active | Not Active | – | Not Active | Not Active | Not Active | – | – | – | – | – | – | Not Active | Not Active | Not Active | Not Active

Source: ChEMBL document CHEMBL1909046, “DrugMatrix in vitro pharmacology data”
